Literature values in patent US20260216230A1, “SERRATIA ANTICANCER POLYSACCHARIDE COMPOSITIONS AND METHODS” (Board of Supervisors of Louisiana State University and …, priority 2023, published 2026).

Test system: refractory Stage 4 patients
Conditions: phase I

For `CC(=O)O[C@H]1C(=O)[C@@]2(C)[C@H]([C@H](OC(=O)c3ccccc3)[C@]3(O)C[C@H](OC(=O)[C@H](O)[C@@H](NC(=O)c4ccccc4)c4ccccc4)C(C)=C1C3(C)C)[C@]1(OC(C)=O)CO[C@@H]1C[C@@H]2O` [Taxol], the effectivity is listed as 12%.
